# Assay results reported in patent US20080312128A1, “Cellular Biomarker Antioxidant Assay and Uses Thereof” (priority 2005, published 2008).
# Where two headings read alike, the source gives them in different places.
# Key:
# [1] = test system: FosL; experiment: H2O2-induced FosL transcription in cultured RPE cells, qPCR; format: cell-based, human
# Protocol: Human retinal pigment epithelial (RPE) cells (ARPE-19) were cultured in DMEM/F12 media supplemented with 10% fetal bovine serum (FBS, Atlanta Biologicals, Norcross, Ga.) plus L-glutamine, penicillin, and streptomycin in an atmosphere of humidified 95% air and 5% CO2 at 37° C. until confluent in single wells of 6-well plates. The cells were initially grown in DMEM/F12 with FBS to reduce the time to reach confluence. Cells were then rinsed and fed with NR-1 media (BioSource, Camarillo, Calif.). NR-1 is a chemically defined tissue culture medium supplemented with EGF, insulin, hydrocortisone, and transferrin. […]
# Total cellular RNA was isolated from the cells at time points 0, 1, and 4 hours using TRI reagent as described above using the protocol recommended by the manufacturer. The RNA was cleaned of trace DNA contaminants by treatment with DNA-Free (Ambion, Austin, Tex.) and the concentration was measured by spectrophotometry. […]
# One μg of total cellular RNA was reversed transcribed (RT) in 20 μL of reaction volume using the Reverse Transcription System using the manufacturer's recommended protocol (Promega, Madison, Wis.). The RT product was diluted 1:5 with DNase-free water and quantitative PCR (qPCR) amplification was performed in 50 μl of buffer containing 1×SYBR® Green PCR Master mix (ABI), optimized forward and reverse qPCR primers and 5 μl of the 1:5 diluted RT product. […]
# [2] = test system: cFos; experiment: H2O2-induced c-Fos transcription in cultured RPE cells, qPCR; format: cell-based, human; conditions: for Fold change in expression, cFos, 1-Hr / Fold change in expression, cFos, 4-Hr: ARPE-19 cells
# Protocol: (§1) Human retinal pigment epithelial (RPE) cells (ARPE-19) were cultured in DMEM/F12 media supplemented with 10% fetal bovine serum (FBS, Atlanta Biologicals, Norcross, Ga.) plus L-glutamine, penicillin, and streptomycin in an atmosphere of humidified 95% air and 5% CO2 at 37° C. until confluent in single wells of 6-well plates. The cells were initially grown in DMEM/F12 with FBS to reduce the time to reach confluence. Cells were then rinsed and fed with NR-1 media (BioSource, Camarillo, Calif.). NR-1 is a chemically defined tissue culture medium supplemented with EGF, insulin, hydrocortisone, and transferrin. After feeding with NR-1, the confluent cells were cultured for 3 days to stabilize gene expression.
# (§2) The OS was not rinsed from the culture; rather, the NR-1 medium was aspirated and TRI Reagent (Sigma, St. Louis, Mo.) was immediately added to lyse the cells and stabilize the RNA at the designated time-points.
# (§3) Total cellular RNA was isolated from the cells at time points 0, 1, and 4 hours using TRI reagent as described above using the protocol recommended by the manufacturer. The RNA was cleaned of trace DNA contaminants by treatment with DNA-Free (Ambion, Austin, Tex.) and the concentration was measured by spectrophotometry. The purified RNA was dissolved in DEPC-treated double distilled water at the concentration of 0.2 mg/ml. and stored at −80° C.
# (§4) One μg of total cellular RNA was reversed transcribed (RT) in 20 μL of reaction volume using the Reverse Transcription System using the manufacturer's recommended protocol (Promega, Madison, Wis.). The RT product was diluted 1:5 with DNase-free water and quantitative PCR (qPCR) amplification was performed in 50 μl of buffer containing 1×SYBR® Green PCR Master mix (ABI), optimized forward and reverse qPCR primers and 5 μl of the 1:5 diluted RT product. The qPCR reaction was started at a 50° C. hold for 2 minutes, then 95° C. hold for 10 minutes, followed by 40 cycles of 95° C. for 15 seconds, and 60° C. for 1 minute. The reaction was performed using the ABI PRISM® 7700 Sequence Detection System.
# [3] = test system: CRYAA, CRYBB, and CRYGS crystallin genes; experiment: H2O2-induced transcription of crystallin genes in cultured RPE cells, qPCR; format: cell-based, human; conditions: 100 μM and 500 μM H2O2, 1 and 4 hours
# Protocol: Transcription of the above-identified crystallin genes was quantified at 1 and 4 hours in cells exposed to 100 μM and 500 μM H2O2-induced OS, and compared to controls.
# [4] = test system: JunB; experiment: H2O2-induced JunB transcription in cultured RPE cells, qPCR; format: cell-based, human; conditions: for Fold change, JunB, 1-Hr / Fold change, JunB, 4-Hr: ARPE-19 cells
# Protocol: as §1, §2, §3, §4
# [5] = test system: HO-1; experiment: H2O2-induced HO-1 transcription in cultured RPE cells, qPCR; format: cell-based, human; conditions: for Fold change, HO-1, 1-Hr / Fold change, HO-1, 4-Hr: ARPE-19 cells
# [6] = test system: CRYBA; conditions: ARPE-19 cells
# Protocol: as §1, §2, §3, §4
# [7] = test system: FosB; conditions: ARPE-19 cells
# Protocol: For OS studies, ARPE19 cells were incubated for 1 hour at 37° C. in conditioned NR-1 media containing 50-500 μM H202. Cells were either not rinsed (1-, 2-, and 4-hour isolations) or rinsed using the Media Rinse 2 method (4-, 8-, and 24-hour isolations). At designated time-points, NR-1 medium was aspirated and the total cellular RNA was immediately isolated in TRI reagent (Sigma). Single wells were used in each plate to minimize any influence of temperature shifts on gene expression. All procedures were performed in a dim red light environment to reduce any influence of light on gene expression. RNA was isolated either before the onset of OS(O-hour control), or at 1, 2, 4, 8, or 24 hours after the start of the 1-hour OS treatment.
# Assays of oxidative stress as described above with RPE cells were performed using the “no touch” technique, to determine whether OS-specific responses of FosB gene expression occurred during the first 8 hours after induction of stress. In addition, a dose-response study of FosB gene expression was performed to determine whether the degree of OS could be quantified using this molecular response.
# as §1, §2, §3, §4
# [8] = test system: ARPE-19 cells; conditions: confluent cell culture, MTT
# [9] = test system: ATF3; experiment: H2O2-induced ATF3 transcription in cultured RPE cells, qPCR; format: cell-based, human; conditions: for Fold change in expression, ATF3, 1-Hr / Fold change in expression, ATF3, 4-Hr: ARPE-19 cells
# Protocol: as §1, §2, §3, §4
structure (smiles),measurement,setting,value
OO [H2O2],Increase in FosL transcription compared to controls,"[1]; 4 hours after OS, highest OS dose",3 fold
same,Increase in FosL transcription,"[1]; after 1 hour of OS, 100 μM and 500 μM H2O2",2 fold
same,"Fold change in expression, cFos, 1-Hr","[2]; 50 μM H2O2, 1 h",0 fold
same,"Fold change in expression, cFos, 4-Hr","[2]; 50 μM H2O2, 4 h",1 fold
same,"Fold change in expression, cFos, 1-Hr","[2]; 100 μM H2O2, 1 h",0 fold
same,"Fold change in expression, cFos, 4-Hr","[2]; 100 μM H2O2, 4 h",2 fold
same,"Fold change in expression, cFos, 1-Hr","[2]; 200 μM H2O2, 1 h",4 fold
same,"Fold change in expression, cFos, 4-Hr","[2]; 200 μM H2O2, 4 h",3 fold
same,"Fold change in expression, cFos, 1-Hr","[2]; 350 μM H2O2, 1 h",7 fold
same,"Fold change in expression, cFos, 4-Hr","[2]; 350 μM H2O2, 4 h",16 fold
same,"Fold change in expression, cFos, 1-Hr","[2]; 500 μM H2O2, 1 h",12 fold
same,"Fold change in expression, cFos, 4-Hr","[2]; 500 μM H2O2, 4 h",32 fold
same,Increase in transcription of c-Fos (maximum),"[2]; after 1 hour of OS, 0-500 μM H2O2",up to 12 fold
same,Elevation of c-Fos transcription over controls,[2]; after 4 hours of OS,8 fold
same,"Induction of CRYAA, CRYBB, and CRYGS crystallin genes",[3],does not induce
same,Level of JunB transcriptional activation,"[4]; 4 hours, all levels of OS ≧about 100 μM H2O2",~4 fold
same,"Fold change, JunB, 1-Hr","[4]; 50 μM H2O2, 1 h",0 fold
same,"Fold change, JunB, 4-Hr","[4]; 50 μM H2O2, 4 h",1 fold
same,"Fold change, JunB, 1-Hr","[4]; 100 μM H2O2, 1 h",0 fold
same,"Fold change, JunB, 4-Hr","[4]; 100 μM H2O2, 4 h",8 fold
same,"Fold change, JunB, 1-Hr","[4]; 200 μM H2O2, 1 h",0 fold
same,"Fold change, JunB, 4-Hr","[4]; 200 μM H2O2, 4 h",4 fold
same,"Fold change, JunB, 1-Hr","[4]; 350 μM H2O2, 1 h",0 fold
same,"Fold change, JunB, 4-Hr","[4]; 350 μM H2O2, 4 h",4 fold
same,"Fold change, JunB, 1-Hr","[4]; 500 μM H2O2, 1 h",3 fold
same,"Fold change, JunB, 4-Hr","[4]; 500 μM H2O2, 4 h",4 fold
same,H2O2 level above which HO-1 threshold response is seen,[5],above 50 μM
same,"Fold change, HO-1, 1-Hr","[5]; 50 μM H2O2, 1 h",2 fold
same,"Fold change, HO-1, 4-Hr","[5]; 50 μM H2O2, 4 h",2 fold
same,"Fold change, HO-1, 1-Hr","[5]; 100 μM H2O2, 1 h",2 fold
same,"Fold change, HO-1, 4-Hr","[5]; 100 μM H2O2, 4 h",8 fold
same,"Fold change, HO-1, 1-Hr","[5]; 200 μM H2O2, 1 h",2 fold
same,"Fold change, HO-1, 4-Hr","[5]; 200 μM H2O2, 4 h",8 fold
same,"Fold change, HO-1, 1-Hr","[5]; 350 μM H2O2, 1 h",2 fold
same,"Fold change, HO-1, 4-Hr","[5]; 350 μM H2O2, 4 h",6 fold
same,"Fold change, HO-1, 1-Hr","[5]; 500 μM H2O2, 1 h",2 fold
same,"Fold change, HO-1, 4-Hr","[5]; 500 μM H2O2, 4 h",6 fold
same,"Fold change in expression, CRYBA, 1-Hr","[6]; 50 μM H2O2, 1 h",0 fold
same,"Fold change in expression, CRYBA, 4-Hr","[6]; 50 μM H2O2, 4 h",−2 fold
same,"Fold change in expression, CRYBA, 1-Hr","[6]; 100 μM H2O2, 1 h",1 fold
same,"Fold change in expression, CRYBA, 4-Hr","[6]; 100 μM H2O2, 4 h",3 fold
same,"Fold change in expression, CRYBA, 1-Hr","[6]; 200 μM H2O2, 1 h",2 fold
same,"Fold change in expression, CRYBA, 4-Hr","[6]; 200 μM H2O2, 4 h",1 fold
same,"Fold change in expression, CRYBA, 1-Hr","[6]; 350 μM H2O2, 1 h",3 fold
same,"Fold change in expression, CRYBA, 4-Hr","[6]; 350 μM H2O2, 4 h",3 fold
same,"Fold change in expression, CRYBA, 1-Hr","[6]; 500 μM H2O2, 1 h",4 fold
same,"Fold change in expression, CRYBA, 4-Hr","[6]; 500 μM H2O2, 4 h",4 fold
same,"Fold change in expression, FosB, 1-Hr","[7]; 50 μM H2O2, 1 h",2 fold
same,"Fold change in expression, FosB, 4-Hr","[7]; 50 μM H2O2, 4 h",2 fold
same,"Fold change in expression, FosB, 1-Hr","[7]; 100 μM H2O2, 1 h",2 fold
same,"Fold change in expression, FosB, 4-Hr","[7]; 100 μM H2O2, 4 h",6 fold
same,"Fold change in expression, FosB, 1-Hr","[7]; 200 μM H2O2, 1 h",6 fold
same,"Fold change in expression, FosB, 4-Hr","[7]; 200 μM H2O2, 4 h",6 fold
same,"Fold change in expression, FosB, 1-Hr","[7]; 350 μM H2O2, 1 h",6 fold
same,"Fold change in expression, FosB, 4-Hr","[7]; 350 μM H2O2, 4 h",20 fold
same,"Fold change in expression, FosB, 1-Hr","[7]; 500 μM H2O2, 1 h",16 fold
same,"Fold change in expression, FosB, 4-Hr","[7]; 500 μM H2O2, 4 h",64 fold
same,500 μM H2O2 for up to 4-hours as percent of dose required to induce 10% cell death (LD10),[8],55%
same,Increase in ATF3 transcription,[9]; 1 hour after OS,~3 fold
same,"Fold change in expression, ATF3, 1-Hr","[9]; 50 μM H2O2, 1 h",0 fold
same,"Fold change in expression, ATF3, 4-Hr","[9]; 50 μM H2O2, 4 h",0 fold
same,"Fold change in expression, ATF3, 1-Hr","[9]; 100 μM H2O2, 1 h",0 fold
same,"Fold change in expression, ATF3, 4-Hr","[9]; 100 μM H2O2, 4 h",0 fold
same,"Fold change in expression, ATF3, 1-Hr","[9]; 200 μM H2O2, 1 h",2 fold
same,"Fold change in expression, ATF3, 4-Hr","[9]; 200 μM H2O2, 4 h",3 fold
same,"Fold change in expression, ATF3, 1-Hr","[9]; 350 μM H2O2, 1 h",2 fold
same,"Fold change in expression, ATF3, 4-Hr","[9]; 350 μM H2O2, 4 h",8 fold
same,"Fold change in expression, ATF3, 1-Hr","[9]; 500 μM H2O2, 1 h",3 fold
